Consider three compounds from patent publication US20240246942A1, “KINASE INHIBITORS FOR THE TREATMENT OF NEURODEGENERATIVE DISEASES” (priority 2020, published 2024).

Experiment in all cases: biochemical
The target of assay [1] is T1, panel of 374 wild-type kinases (Homo sapiens, UniProt P14616).
T1 construct: purchased Reaction Biology Corporation
The settings on record: read-out: % Enzyme Activity (relative to DMSO controls), IRR/INSRR.

In assay [2] the target is T2, panel of 374 wild-type kinases (Homo sapiens, UniProt P07949).
T2 construct: purchased Reaction Biology Corporation
The note with it: read-out: % Enzyme Activity (relative to DMSO controls), kinase RET.

In assay [3] the target is T3, panel of 374 wild-type kinases (Homo sapiens, UniProt P23458).
T3 construct: purchased Reaction Biology Corporation
The note with it: read-out: % Enzyme Activity (relative to DMSO controls), JAK1.

The target of assay [4] is T4, panel of 374 wild-type kinases (Homo sapiens, UniProt P22694).
T4 construct: purchased Reaction Biology Corporation
The settings on record: read-out: % Enzyme Activity (relative to DMSO controls), kinase PKAcb.

The target of assay [5] is T5, panel of 374 wild-type kinases (Homo sapiens, UniProt Q9UKE5).
T5 construct: purchased Reaction Biology Corporation
The settings on record: read-out: % Enzyme Activity (relative to DMSO controls), kinase TNIK.

Assay [6] addresses T6, panel of 374 wild-type kinases (Homo sapiens, UniProt Q8TF76).
T6 construct: purchased Reaction Biology Corporation
T6 sequence (Q8TF76 1-798): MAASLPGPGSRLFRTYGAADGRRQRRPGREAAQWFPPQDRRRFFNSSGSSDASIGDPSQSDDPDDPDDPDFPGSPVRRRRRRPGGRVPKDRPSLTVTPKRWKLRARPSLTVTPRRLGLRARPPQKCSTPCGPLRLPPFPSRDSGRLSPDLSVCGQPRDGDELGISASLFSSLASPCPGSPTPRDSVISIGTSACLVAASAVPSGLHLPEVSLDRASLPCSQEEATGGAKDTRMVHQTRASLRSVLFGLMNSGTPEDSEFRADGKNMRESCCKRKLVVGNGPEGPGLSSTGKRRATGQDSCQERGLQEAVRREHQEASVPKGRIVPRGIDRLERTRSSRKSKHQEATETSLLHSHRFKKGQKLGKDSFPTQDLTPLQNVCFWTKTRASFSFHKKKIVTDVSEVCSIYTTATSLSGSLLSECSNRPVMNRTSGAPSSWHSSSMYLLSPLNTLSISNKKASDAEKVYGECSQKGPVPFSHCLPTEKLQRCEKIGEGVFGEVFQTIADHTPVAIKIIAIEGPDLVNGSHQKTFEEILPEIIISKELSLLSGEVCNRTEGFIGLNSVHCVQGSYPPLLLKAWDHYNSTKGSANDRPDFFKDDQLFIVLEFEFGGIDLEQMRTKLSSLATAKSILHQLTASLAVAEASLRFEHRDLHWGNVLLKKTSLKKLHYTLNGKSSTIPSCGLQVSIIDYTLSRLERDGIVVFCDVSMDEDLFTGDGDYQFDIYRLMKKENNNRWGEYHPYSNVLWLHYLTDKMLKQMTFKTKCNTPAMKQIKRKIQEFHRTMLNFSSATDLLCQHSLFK
The note with it: read-out: % Enzyme Activity (relative to DMSO controls), Haspin.

For assay [7], the target named is T7, panel of 374 wild-type kinases (Homo sapiens, UniProt P54760).
T7 construct: purchased Reaction Biology Corporation
T7 sequence (P54760 16-987): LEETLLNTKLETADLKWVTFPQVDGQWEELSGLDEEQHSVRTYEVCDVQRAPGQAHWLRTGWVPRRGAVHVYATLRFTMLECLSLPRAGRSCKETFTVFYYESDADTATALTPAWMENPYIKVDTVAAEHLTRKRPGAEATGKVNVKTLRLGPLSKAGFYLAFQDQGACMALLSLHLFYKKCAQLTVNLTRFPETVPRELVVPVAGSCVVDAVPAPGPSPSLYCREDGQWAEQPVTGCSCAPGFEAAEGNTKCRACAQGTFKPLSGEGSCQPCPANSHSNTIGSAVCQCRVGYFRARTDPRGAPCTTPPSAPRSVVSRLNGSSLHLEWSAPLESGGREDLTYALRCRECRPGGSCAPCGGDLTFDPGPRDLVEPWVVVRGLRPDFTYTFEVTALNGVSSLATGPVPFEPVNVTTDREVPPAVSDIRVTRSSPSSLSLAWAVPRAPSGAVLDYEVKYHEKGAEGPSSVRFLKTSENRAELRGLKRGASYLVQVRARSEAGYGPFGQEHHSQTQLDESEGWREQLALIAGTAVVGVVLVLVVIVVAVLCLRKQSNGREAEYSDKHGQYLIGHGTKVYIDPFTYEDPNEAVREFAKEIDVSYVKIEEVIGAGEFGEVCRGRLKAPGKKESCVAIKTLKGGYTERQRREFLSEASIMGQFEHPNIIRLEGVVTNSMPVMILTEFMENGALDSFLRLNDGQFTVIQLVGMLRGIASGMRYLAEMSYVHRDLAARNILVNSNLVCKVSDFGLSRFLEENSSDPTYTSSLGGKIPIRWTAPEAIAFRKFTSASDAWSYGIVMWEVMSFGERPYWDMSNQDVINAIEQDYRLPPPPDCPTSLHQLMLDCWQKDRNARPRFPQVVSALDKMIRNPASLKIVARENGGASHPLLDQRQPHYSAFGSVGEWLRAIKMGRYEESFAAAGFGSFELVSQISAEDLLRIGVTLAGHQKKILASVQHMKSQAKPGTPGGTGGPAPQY
The settings on record: read-out: % Enzyme Activity (relative to DMSO controls), EPHB4.

Assay [8] deals with T8, panel of 374 wild-type kinases (Homo sapiens, UniProt Q96SB4).
T8 construct: purchased Reaction Biology Corporation
The settings on record: read-out: % Enzyme Activity (relative to DMSO controls), kinase SRPK1.

For assay [9], the target named is T9, panel of 374 wild-type kinases (Homo sapiens, UniProt Q9HBY8).
T9 construct: purchased Reaction Biology Corporation
The settings on record: read-out: % Enzyme Activity (relative to DMSO controls), kinase SGK2.

Assay [10] has as its target T10, panel of 374 wild-type kinases (Homo sapiens, UniProt Q15208).
T10 construct: purchased Reaction Biology Corporation
The settings on record: read-out: % Enzyme Activity (relative to DMSO controls), kinase STK38/NDR1.

Assay [11] deals with T11, panel of 374 wild-type kinases (Homo sapiens, UniProt P16234).
T11 construct: purchased Reaction Biology Corporation
The settings on record: read-out: % Enzyme Activity (relative to DMSO controls), kinase PDGFRa.

T11 sequence (P16234 24-1089): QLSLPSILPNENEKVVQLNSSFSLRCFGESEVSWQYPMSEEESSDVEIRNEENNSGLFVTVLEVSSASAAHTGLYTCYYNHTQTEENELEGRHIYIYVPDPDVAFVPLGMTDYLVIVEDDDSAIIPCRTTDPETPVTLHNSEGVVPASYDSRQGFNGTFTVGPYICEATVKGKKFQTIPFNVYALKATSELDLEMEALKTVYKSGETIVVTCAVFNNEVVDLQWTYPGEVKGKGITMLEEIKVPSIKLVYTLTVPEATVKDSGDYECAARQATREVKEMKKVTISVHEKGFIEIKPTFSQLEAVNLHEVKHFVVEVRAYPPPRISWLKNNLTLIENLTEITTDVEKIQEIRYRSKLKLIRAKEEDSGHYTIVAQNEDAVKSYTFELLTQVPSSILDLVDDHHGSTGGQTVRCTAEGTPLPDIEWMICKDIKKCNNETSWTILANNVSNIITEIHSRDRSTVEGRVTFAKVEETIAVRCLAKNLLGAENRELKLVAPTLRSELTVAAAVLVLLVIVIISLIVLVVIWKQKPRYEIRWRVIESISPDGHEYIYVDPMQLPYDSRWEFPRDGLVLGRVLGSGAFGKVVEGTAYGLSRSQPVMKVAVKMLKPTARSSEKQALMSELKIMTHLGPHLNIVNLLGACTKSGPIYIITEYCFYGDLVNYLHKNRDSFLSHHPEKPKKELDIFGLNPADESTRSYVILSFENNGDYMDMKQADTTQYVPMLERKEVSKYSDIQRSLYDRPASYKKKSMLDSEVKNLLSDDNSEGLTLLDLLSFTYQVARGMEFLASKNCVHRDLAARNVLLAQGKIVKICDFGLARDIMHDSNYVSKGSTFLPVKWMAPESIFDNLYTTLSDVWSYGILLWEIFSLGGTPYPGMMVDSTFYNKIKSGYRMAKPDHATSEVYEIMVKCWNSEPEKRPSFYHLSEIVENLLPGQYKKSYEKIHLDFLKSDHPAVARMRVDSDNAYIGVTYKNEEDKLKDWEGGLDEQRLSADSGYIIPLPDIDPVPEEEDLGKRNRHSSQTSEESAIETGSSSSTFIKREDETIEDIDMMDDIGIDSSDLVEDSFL
T3 sequence (P23458 whole entry): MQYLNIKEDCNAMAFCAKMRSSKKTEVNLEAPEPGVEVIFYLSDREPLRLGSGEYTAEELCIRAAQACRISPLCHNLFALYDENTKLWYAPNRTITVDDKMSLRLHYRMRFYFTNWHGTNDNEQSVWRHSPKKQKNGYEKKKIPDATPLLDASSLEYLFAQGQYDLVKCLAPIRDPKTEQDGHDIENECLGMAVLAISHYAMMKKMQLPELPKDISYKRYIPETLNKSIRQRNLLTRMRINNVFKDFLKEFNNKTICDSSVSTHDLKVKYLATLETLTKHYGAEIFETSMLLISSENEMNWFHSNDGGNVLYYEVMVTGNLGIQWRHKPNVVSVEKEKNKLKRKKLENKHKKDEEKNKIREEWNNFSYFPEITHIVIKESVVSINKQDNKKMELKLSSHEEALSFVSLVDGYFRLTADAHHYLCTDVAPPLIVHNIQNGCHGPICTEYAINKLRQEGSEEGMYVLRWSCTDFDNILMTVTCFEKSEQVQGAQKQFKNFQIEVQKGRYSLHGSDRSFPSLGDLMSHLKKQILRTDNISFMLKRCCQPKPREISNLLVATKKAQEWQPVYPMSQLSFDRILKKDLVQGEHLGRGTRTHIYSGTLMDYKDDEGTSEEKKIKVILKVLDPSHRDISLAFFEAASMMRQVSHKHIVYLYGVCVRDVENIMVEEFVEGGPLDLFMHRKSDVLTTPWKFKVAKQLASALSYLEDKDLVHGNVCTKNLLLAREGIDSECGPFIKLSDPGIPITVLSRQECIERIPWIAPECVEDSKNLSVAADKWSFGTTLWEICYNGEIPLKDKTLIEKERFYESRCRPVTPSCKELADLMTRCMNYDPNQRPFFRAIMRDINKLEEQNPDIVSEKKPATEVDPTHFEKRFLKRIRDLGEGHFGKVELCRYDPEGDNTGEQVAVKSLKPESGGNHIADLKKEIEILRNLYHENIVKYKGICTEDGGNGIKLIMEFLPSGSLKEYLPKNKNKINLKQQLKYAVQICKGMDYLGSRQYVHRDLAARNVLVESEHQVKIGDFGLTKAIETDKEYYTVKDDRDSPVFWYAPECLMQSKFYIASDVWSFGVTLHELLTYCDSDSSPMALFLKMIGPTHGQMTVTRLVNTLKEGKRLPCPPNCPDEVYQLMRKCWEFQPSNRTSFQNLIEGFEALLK
T5 sequence (Q9UKE5 whole entry): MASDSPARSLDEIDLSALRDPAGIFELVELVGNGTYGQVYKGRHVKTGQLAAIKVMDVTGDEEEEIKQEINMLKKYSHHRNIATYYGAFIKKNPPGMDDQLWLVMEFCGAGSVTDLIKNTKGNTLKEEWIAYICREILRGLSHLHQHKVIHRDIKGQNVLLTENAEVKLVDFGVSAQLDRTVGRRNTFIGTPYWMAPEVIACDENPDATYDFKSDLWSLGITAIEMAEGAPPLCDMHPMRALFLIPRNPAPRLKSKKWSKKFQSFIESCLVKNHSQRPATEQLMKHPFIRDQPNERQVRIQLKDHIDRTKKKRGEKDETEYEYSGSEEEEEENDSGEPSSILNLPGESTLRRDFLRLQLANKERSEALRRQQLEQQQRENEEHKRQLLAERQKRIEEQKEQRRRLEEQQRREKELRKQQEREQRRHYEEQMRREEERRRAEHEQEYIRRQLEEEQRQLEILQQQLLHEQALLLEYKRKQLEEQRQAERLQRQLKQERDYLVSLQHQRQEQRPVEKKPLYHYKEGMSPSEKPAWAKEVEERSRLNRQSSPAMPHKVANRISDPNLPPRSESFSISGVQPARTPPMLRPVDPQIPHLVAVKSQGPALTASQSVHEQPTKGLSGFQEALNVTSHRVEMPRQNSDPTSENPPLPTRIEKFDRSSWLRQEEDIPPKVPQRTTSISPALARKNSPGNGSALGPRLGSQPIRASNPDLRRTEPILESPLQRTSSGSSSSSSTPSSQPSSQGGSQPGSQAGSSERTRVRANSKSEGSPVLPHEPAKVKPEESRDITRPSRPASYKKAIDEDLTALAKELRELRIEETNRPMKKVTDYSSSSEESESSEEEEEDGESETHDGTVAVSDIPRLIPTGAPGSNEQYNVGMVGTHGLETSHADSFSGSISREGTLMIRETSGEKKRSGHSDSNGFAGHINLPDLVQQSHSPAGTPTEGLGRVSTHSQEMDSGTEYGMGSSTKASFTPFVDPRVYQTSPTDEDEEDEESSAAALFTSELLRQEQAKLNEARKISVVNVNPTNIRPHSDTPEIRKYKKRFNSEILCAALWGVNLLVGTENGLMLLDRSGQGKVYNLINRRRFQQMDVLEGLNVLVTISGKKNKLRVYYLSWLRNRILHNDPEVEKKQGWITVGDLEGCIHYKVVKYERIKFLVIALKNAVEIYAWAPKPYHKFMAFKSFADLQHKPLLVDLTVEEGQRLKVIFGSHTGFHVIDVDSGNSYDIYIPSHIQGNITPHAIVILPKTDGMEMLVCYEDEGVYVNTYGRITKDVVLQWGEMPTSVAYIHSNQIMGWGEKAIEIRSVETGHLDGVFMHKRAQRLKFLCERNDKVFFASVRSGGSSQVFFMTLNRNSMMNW
T9 sequence (Q9HBY8 whole entry): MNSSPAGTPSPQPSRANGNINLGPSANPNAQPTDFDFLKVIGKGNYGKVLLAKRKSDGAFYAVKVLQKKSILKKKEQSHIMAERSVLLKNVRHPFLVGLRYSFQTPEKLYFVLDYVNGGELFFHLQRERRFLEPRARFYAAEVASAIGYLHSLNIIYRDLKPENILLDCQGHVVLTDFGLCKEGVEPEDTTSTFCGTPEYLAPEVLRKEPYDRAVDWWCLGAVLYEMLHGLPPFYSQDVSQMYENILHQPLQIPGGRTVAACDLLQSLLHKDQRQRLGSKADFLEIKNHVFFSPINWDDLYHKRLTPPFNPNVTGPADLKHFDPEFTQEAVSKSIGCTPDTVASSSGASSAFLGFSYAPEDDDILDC
T8 sequence (Q96SB4 whole entry): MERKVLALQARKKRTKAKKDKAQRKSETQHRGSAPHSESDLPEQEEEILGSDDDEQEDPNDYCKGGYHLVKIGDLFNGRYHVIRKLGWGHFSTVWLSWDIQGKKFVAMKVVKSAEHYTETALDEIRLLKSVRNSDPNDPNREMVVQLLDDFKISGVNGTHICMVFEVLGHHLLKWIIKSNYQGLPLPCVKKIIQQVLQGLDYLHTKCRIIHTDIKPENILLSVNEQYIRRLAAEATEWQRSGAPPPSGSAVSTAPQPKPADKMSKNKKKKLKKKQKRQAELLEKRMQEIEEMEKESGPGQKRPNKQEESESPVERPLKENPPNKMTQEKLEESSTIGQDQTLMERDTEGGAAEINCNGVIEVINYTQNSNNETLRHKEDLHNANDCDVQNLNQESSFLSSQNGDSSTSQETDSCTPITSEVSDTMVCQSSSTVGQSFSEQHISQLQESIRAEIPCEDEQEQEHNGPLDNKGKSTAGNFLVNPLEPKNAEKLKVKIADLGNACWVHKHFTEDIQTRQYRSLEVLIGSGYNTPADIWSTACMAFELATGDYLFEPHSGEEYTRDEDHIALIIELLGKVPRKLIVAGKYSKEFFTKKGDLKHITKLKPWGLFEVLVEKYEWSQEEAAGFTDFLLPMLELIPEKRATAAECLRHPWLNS
T10 sequence (Q15208 whole entry): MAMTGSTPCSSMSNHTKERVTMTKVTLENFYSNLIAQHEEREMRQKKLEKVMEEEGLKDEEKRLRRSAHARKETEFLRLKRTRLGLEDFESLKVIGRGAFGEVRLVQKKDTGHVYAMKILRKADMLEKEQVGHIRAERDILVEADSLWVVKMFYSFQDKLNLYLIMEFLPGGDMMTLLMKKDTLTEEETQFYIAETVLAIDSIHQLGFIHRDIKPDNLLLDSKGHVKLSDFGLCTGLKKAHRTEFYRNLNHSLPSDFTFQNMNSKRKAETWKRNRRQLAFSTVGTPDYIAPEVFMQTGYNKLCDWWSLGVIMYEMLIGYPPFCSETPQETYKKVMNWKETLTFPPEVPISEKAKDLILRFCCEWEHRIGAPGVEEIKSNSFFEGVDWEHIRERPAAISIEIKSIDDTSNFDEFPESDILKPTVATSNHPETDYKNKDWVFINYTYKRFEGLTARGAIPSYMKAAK

For the compound `O=C(Nc1cnn(-c2csc(C(=O)NC3COC3)c2)c1)Nc1ccccc1Cl` [Compound 17, 4-(4-(3-(2-chlorophenyl)ureido)-1H-pyrazol-1-yl)-N-(oxetan-3-yl)thiophene-2-carboxamide], the remaining activity at 5 µM in [1] was 96%; in [2] it was 97.8%; in assay [3], 98.7%; in assay [4] it was 99%; in [5], 53.2%; in assay [6], 112%. Moreover, the remaining activity at 5 µM was 97.8% in [7]; 98.7% in assay [8]; 101% in [9]; 99.2% in assay [10]; 95.2% in assay [11].

As for `O=C(Nc1cnn(-c2csc(C(=O)NC3COC3)c2)c1)Nc1c(F)cccc1Cl` [Compound 25, 4-(4-(3-(2-chloro-6-fluorophenyl)ureido)-1H-pyrazol-1-yl)-N-(oxetan-3-yl)thiophene-2-carboxamide], the remaining activity at 5 µM in [1] turned out to be 75.9%; in assay [2], 98.1%; in assay [3], 107%; in assay [4] it was 98.3%; in [5], 84.3%; in assay [6], 111%. The remaining activity at 5 µM was 98.1% in assay [7]; 104% in [8]; 88.6% in assay [9]; 95.5% in [10]; 107% in [11].

`Cc1sc(C(=O)NC2COC2)cc1-n1cc(NC(=O)Nc2c(F)cccc2Cl)cn1` [Compound 27, 4-(4-(3-(2-chloro-6-fluorophenyl)ureido)-1H-pyrazol-1-yl)-5-methyl-N-(oxetan-3-yl)thiophene-2-carboxamide]: the remaining activity at 10 µM came to 71.9% in [1] (10 uM); 113% in assay [2] (10 uM); 72.2% in [3] (10 uM); 104% in assay [4] (10 uM); 94.5% in [5] (10 uM); 92.4% in [6] (10 uM). The remaining activity at 10 µM is 93.7% in assay [7] (10 uM); 96.9% in assay [8] (10 uM); 97.2% in assay [9] (10 uM); 91.5% in assay [10] (10 uM); 114% in assay [11] (10 uM).
